Laboratory results from patent US6890537B2, “Antimicrobial theta defensins and methods of using same” (The Regents of the University of California, priority 1999, dated 2005).
Positions of bridges follow the written chain, without caps; N, C: chain ends. Residues, ends and D or L forms follow the SMILES beside them.

How the values were obtained:
Escherichia coli ML35 = experiment: Agar diffusion assay; format: cell-based
Description: (§1) The purified chromatographic peaks were screened for antibacterial activity against Escherichia coli ML35 and Staphylococcus aureus 502a. Briefly, antibacterial activity was screened with an agar diffusion assay using lyophilized samples of HPLC fractions dissolved in 5 μl of 0.01% acetic acid as described by Lehrer et al., J. Immunol. Methods 137:167-173 (1991)).
(§2) Agar diffusion assays and microbicidal suspension assays were used to examine the activity of theta defensin against Staphylococcus aureus 502A, Escherichia coli ML35, Listeria monocytogenes, and Cryptococcus neoformans.

[1] = test system: Staphylococcus aureus 502a; experiment: Agar diffusion assay; format: cell-based
Description: as §1, §2

[2] = test system: Cryptococcus neoformans 271A; experiment: Agar diffusion assay; format: cell-based; conditions: 10, 30, 100 or 300 μg/ml; agar seeded with 1×10^6 colony forming units; FIG. 7
From the text: as §2

[3] = test system: Listeria monocytogenes EGD; experiment: Agar diffusion assay; format: cell-based; conditions: 10, 30, 100 or 300 μg/ml; agar seeded with 1×10^6 colony forming units; FIG. 7
From the text: as §2

[4] = test system: Staphylococcus aureus 502a; experiment: Microbicidal suspension assay (colony counts); format: cell-based
Description: S. aureus 502a was incubated with increasing concentrations of natural or synthetic theta defensin peptide. Killing was quantified by colony counts.
Killing was quantified by colony counts. […] The limit of detection (1 colony per plate) was equal to 1×10^3 colony forming units in the incubation mixture.
Killing activity was quantified by colony counts after 18 hrs.
Killing was quantified by colony counts.
(§3) Additional antimicrobial assays were conducted on other microbial organisms. […] In FIG. 9A, S. aureus 502a was incubated with increasing concentrations of natural or synthetic peptide for 30 min at 37° C. in 10 mM PIPES, pH 7.4, containing 5 mM glucose. Killing was quantified by colony counts. […] The limit of detection (1 colony per plate) was equal to 1×10^3 colony forming units in the incubation mixture.
It has been proposed that salt sensitivity of airway defensins underlies the susceptibility of cystic fibrosis patients to pulmonary infections.
(§4) An acyclic version of theta defensin was also tested for antimicrobial activity. […] Killing activity was quantified by colony counts after 18 hrs.

L. monocytogenes = experiment: Microbicidal suspension assay (colony counts); format: cell-based, Listeria monocytogenes; conditions: 2 hr, 37° C., 10 mM PIPES, pH 7.4, 5 mM glucose; FIG. 9B
Description: (§5) Killing was quantified by colony counts. Panels B-D show incubation of the indicated organisms with RTD-1 peptide: Listeria monocytogenes and Staphylococcus aureus (Panel B); Salmonella typhimurium and Escherichia coli (Panel C); and Cryptococcus neoformans and Candida albicans (Panel D). The limit of detection (1 colony per plate) was equal to 1×10^3 colony forming units in the incubation mixture.
as §3

E. coli ML 35 = experiment: Microbicidal suspension assay (colony counts); format: cell-based, Escherichia coli
Description: as §5, §3, §4

S. typhimurium = experiment: Microbicidal suspension assay (colony counts); format: cell-based, Salmonella typhimurium; conditions: 2 hr, 37° C., 10 mM PIPES, pH 7.4, 5 mM glucose; FIG. 9C
Description: as §5, §3

C. albicans = experiment: Microbicidal suspension assay (colony counts); format: cell-based, Candida albicans; conditions: 2 hr, 37° C., 10 mM PIPES, pH 7.4, 5 mM glucose; FIG. 9D
Description: as §5, §3

C. neoformans = experiment: Microbicidal suspension assay (colony counts); format: cell-based, Cryptococcus neoformans; conditions: 2 hr, 37° C., 10 mM PIPES, pH 7.4, 5 mM glucose; FIG. 9D
Description: as §5, §3

[5] = 10, 30, 100 or 300 μg/ml, agar seeded with 1×10^6 colony forming units, FIG. 7
[6] = lyophilized HPLC fractions in 5 μl of 0.01% acetic acid, compared with other isolated leukocyte peptides

CC[C@H](C)[C@@H]1NC(=O)[C@@H]2CSSC[C@H](NC(=O)[C@H](CCCNC(=N)N)NC(=O)[C@@H]3CSSC[C@H](NC1=O)C(=O)N[C@@H]([C@@H](C)O)C(=O)N[C@@H](CCCNC(=N)N)C(=O)NCC(=O)N[C@@H](Cc1ccccc1)C(=O)N3)C(=O)N[C@@H](CC(C)C)C(=O)N[C@H]1CSSC[C@H](NC(=O)[C@H](C(C)C)NC(=O)CNC(=O)[C@H](CCCNC(=N)N)NC(=O)[C@H](CCCNC(=N)N)NC1=O)C(=O)N[C@@H](CCCNC(=N)N)C(=O)N2 [RTD-1] (cyclo(GFCRCLCRRGVCRCICTR); disulfide 3-16, 5-14, 7-12)
zone of inhibition (Escherichia coli ML35; [5]): dose dependent increase in the zone of inhibition
antibacterial activity (screen of purified chromatographic peaks) (Escherichia coli ML35; [6]): greatest activity of any of the peptides isolated
zone of inhibition [1, 5]: dose dependent increase in the zone of inhibition
antibacterial activity (screen of purified chromatographic peaks) [1, 6]: greatest activity of any of the peptides isolated
zone of inhibition [2]: dose dependent increase in the zone of inhibition
zone of inhibition [3]: dose dependent increase in the zone of inhibition
effect of NaCl on staphylocidal activity ([4]; 10 μg/ml peptide, 2 h incubation, NaCl concentrations as high as 150 mM, FIG. 9E): little effect
microbicidal activity ([4]; 37° C., 10 mM PIPES, pH 7.4, 5 mM glucose, FIG. 9): killed
peptide concentration reducing colony counts to below the level of detection ([4]; 2 h at 37° C. in 10 mM PIPES, pH 7.4, FIG. 8): ≥ 4 µg/mL
activity of cyclic form relative to acyclic form ([4]; gram positive bacteria (Staphylococcus)): about three times more active
microbicidal activity (L. monocytogenes): killed
microbicidal activity (E. coli ML 35; 2 hr, 37° C., 10 mM PIPES, pH 7.4, 5 mM glucose, FIG. 9C): killed
activity of cyclic form relative to acyclic form (E. coli ML 35; gram negative bacteria (E. coli)): about three times more active
microbicidal activity (S. typhimurium): killed
microbicidal activity (C. albicans): killed
microbicidal activity (C. neoformans): killed
